This is an account of results in patent US12667724B2, “Combination therapy for the treatment of depression” (Flow Neuroscience, Inc., priority 2022, dated 2026).

Structures are written as SMILES. “Also recorded” adds a separate entry of the source.

Assay [1] is described as follows: Weekly MADRS-s self-assessment of MDD subjects on a prescribed antidepressant combined with home tDCS sessions (Example 2). Format: in vivo, human. As to conditions: for effectiveness in reducing symptoms of depression (change in MADRS-s) compared to fluoxetine: combined with tDCS, Week 6. The source says:
In this example, a subject completed a MADRS-s questionnaire at baseline (defined as a time preceding initiation of neurostimulation) to determine a starting measurement to be used in an assessment of treatment efficacy. Ideally, baseline measures were made close to the period of time in which the first neurostimulation session began. The subject completed the same MADRS-s questionnaire weekly during a period of ongoing treatment comprising administering of a prescribed pharmacologic antidepressant agent and delivery to the subject of plurality tDCS sessions. The number of and date completed of each tDCS session was recording in order to analyze subjects according to how often they successfully completed tDCS sessions as part of their treatment regimens. Subjects were parcellated into groups of 1) depression symptoms absent, 2) mild depression, 3) moderate depression, or 4) severe depression to further enable analysis of changes in MADRS-s score according to severity of depression and adherence to the recommended tDCS session schedule. […]
Subjects were provided with a tDCS neurostimulation device, instructions of use, and an program capable of being run on a handheld electronic device which provided instructions, recorded responses to various questionnaires completed by the subject, and recorded information regarding the tDCS stimulation sessions completed by the user. Amongst the tDCS stimulation session information recorded was the date of each session completed, the time of day of each completed session, the duration of each completed session, the intensity of electrical stimulation in each session, the latency from the most recently completed session to the previous session.
Subjects completed a MADSR-s assessment at baseline prior to their first tDCS session. […] In this treatment tracking questionnaire, subjects recorded if their specific antidepressant agent or category of antidepressant had changed. […] Subjects also recorded if the dosage administered of the antidepressant medication had changed in the past month. […]

The subject of assay [2] is serotonin reuptake and norepinephrine reuptake. As to conditions: cited from earlier work.

Take `CN[C@H]1CC[C@@H](c2ccc(Cl)c(Cl)c2)c2ccccc21` [Sertraline, sertraline]: the “effectiveness in reducing symptoms of depression (change in MADRS-s) compared to fluoxetine” value in assay [1] is “significant difference; also recorded: significantly better”.
For the molecule `COc1ccc(C(CN(C)C)C2(O)CCCCC2)cc1` (centres unmarked) [Venlafaxine, venlafaxine], the “Result of ANOVA of change in MADRS-s score” value in assay [1] (Week 6 after initiation of treatment, Fluoxetine vs. the labelled agent, each combined with tDCS, irrespective of tDCS adherence) is listed as “Approaching”. Also, in assay [1], the “effectiveness in reducing symptoms of depression (change in MADRS-s) compared to fluoxetine” value is recorded as “approaching significance”.
Regarding `CN(C)CC(c1ccc(O)cc1)C1(O)CCCCC1` (centres unmarked) [desvenlafaxine], in assay [2], the “selectivity for serotonin reuptake inhibition than norepinephrine reuptake inhibition” value was 10 fold.
For the molecule `CNCC[C@H](Oc1cccc2ccccc12)c1cccs1` [duloxetine], in assay [2], the “selectivity for serotonin reuptake inhibition than norepinephrine reuptake inhibition” value is 10 fold.
